In patent US10597388B2, “Pyridazinone herbicides” (FMC CORPORATION, priority 2014, dated 2020):

Assays:
Assay in all cases: Test D controlled growth environment herbicide test, pre- and postemergence
Format in all cases: in vivo
[1] = test system: oat, wild (wild oat, Avena fatua)
How it was run: (§1)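 Species sown in silt loam and sprayed preemergence, or grown in peat-based medium to 2–18 cm (1- to 4-leaf stage) and sprayed postemergence, with compounds in non-phytotoxic solvent plus surfactant. Visual injury scored versus controls after 14–21 d in a controlled environment, 0 (no effect) to 100 (complete control).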

[2] = test system: bluegrass (annual bluegrass, Poa annua)
How it was run: as §1

[3] = test system: mustard, wild (wild mustard, Sinapis arvensis)
How it was run: as §1

[4] = test system: blackgrass (Alopecurus myosuroides)
How it was run: as §1

[5] = test system: kochia (Kochia scoparia)
How it was run: as §1

[6] = test system: barley, spring (spring barley, Hordeum vulgare)
How it was run: as §1

[7] = test system: Russian thistle (Salsola kali)
How it was run: as §1

[8] = test system: pigweed (Amaranthus retroflexus)
How it was run: as §1

[9] = test system: wheat, spring (spring wheat, Triticum aestivum)
How it was run: as §1

[10] = test system: barley, winter (winter barley, Hordeum vulgare)
How it was run: as §1

[11] = test system: radish, wild (wild radish, Raphanus raphanistrum)
How it was run: as §1

[12] = test system: speedwell (bird's-eye speedwell, Veronica persica)
How it was run: as §1

[13] = test system: field poppy (Papaver rhoeas)
How it was run: as §1

[14] = Postemergence, 31 g ai/ha, scale 0 to 100 (0 no effect, 100 complete control)
[15] = Postemergence, 125 g ai/ha, visual rating on scale 0 (no effect) to 100 (complete control), 14 to 21 d
[16] = Postemergence, 250 g ai/ha, scale 0 to 100 (0 no effect, 100 complete control)
[17] = Preemergence, 62 g ai/ha, scale 0 to 100 (0 no effect, 100 complete control)
[18] = Preemergence, 125 g ai/ha, scale 0 to 100 (0 no effect, 100 complete control)
[19] = Preemergence, 250 g ai/ha, scale 0 to 100, 0 no effect, 100 complete control
[20] = postemergence, 62 g ai/ha, scale 0 to 100, 0 no effect, 100 complete control

Structure (SMILES): COC(=O)Oc1c(C)nn(C)c(=O)c1-c1c(C)sc2ccc(C)cc12 [Compound 80]
- Oat, Wild plant response rating [1, 14]: 95
- Plant response rating, Oat, Wild [1, 15]: 100
- Plant response rating, Oat, Wild [1, 16]: 100
- Plant response rating (scale of 0 to 100), Oat, Wild ([1]; Preemergence, 31 g ai/ha): 85
- Plant response rating, Oat, Wild [1, 17]: 90
- Plant response rating, Oat, Wild [1, 18]: 90
- Plant response rating, Oat, Wild [1, 19]: 95
- Plant response rating, Oat, Wild [1, 20]: 98
- Bluegrass plant response rating [2, 14]: 15
- Plant response rating, Bluegrass [2, 15]: 35
- Plant response rating, Bluegrass [2, 16]: 45
- Plant response rating (scale of 0 to 100), Bluegrass ([2]; Preemergence, 31 g ai/ha): 20
- Plant response rating, Bluegrass [2, 17]: 55
- Plant response rating, Bluegrass [2, 18]: 75
- Plant response rating, Bluegrass [2, 19]: 75
- Plant response rating, Bluegrass [2, 20]: 35
- Mustard, Wild plant response rating [3, 14]: 35
- Plant response rating, Mustard, Wild [3, 15]: 70
- Plant response rating, Mustard, Wild [3, 16]: 100
- Plant response rating (scale of 0 to 100), Mustard, Wild ([3]; Preemergence, 31 g ai/ha): 0
- Plant response rating, Mustard, Wild [3, 17]: 0
- Plant response rating, Mustard, Wild [3, 18]: 0
- Plant response rating, Mustard, Wild [3, 19]: 0
- Plant response rating, Mustard, Wild [3, 20]: 50
- Blackgrass plant response rating [4, 14]: 75
- Plant response rating, Blackgrass [4, 15]: 90
- Plant response rating, Blackgrass [4, 16]: 90
- Plant response rating (scale of 0 to 100), Blackgrass ([4]; Preemergence, 31 g ai/ha): 70
- Plant response rating, Blackgrass [4, 17]: 75
- Plant response rating, Blackgrass [4, 18]: 80
- Plant response rating, Blackgrass [4, 19]: 85
- Plant response rating, Blackgrass [4, 20]: 80
- Kochia plant response rating [5, 14]: 100
- Plant response rating, Kochia [5, 15]: 100
- Plant response rating, Kochia [5, 16]: 100
- Plant response rating (scale of 0 to 100), Kochia ([5]; Preemergence, 31 g ai/ha): 35
- Plant response rating, Kochia [5, 17]: 75
- Plant response rating, Kochia [5, 18]: 100
- Plant response rating, Kochia [5, 19]: 100
- Plant response rating, Kochia [5, 20]: 100
- Barley, Spring plant response rating [6, 14]: 0
- Plant response rating, Barley, Spring [6, 15]: 15
- Plant response rating, Barley, Spring [6, 16]: 25
- Plant response rating (scale of 0 to 100), Barley, Spring ([6]; Preemergence, 31 g ai/ha): 0
- Plant response rating, Barley, Spring [6, 17]: 0
- Plant response rating, Barley, Spring [6, 18]: 5
- Plant response rating, Barley, Spring [6, 19]: 0
- Plant response rating, Barley, Spring [6, 20]: 10
- Russian Thistle plant response rating [7, 14]: 70
- Plant response rating, Russian Thistle [7, 15]: 80
- Plant response rating, Russian Thistle [7, 16]: 80
- Plant response rating (scale of 0 to 100), Russian Thistle ([7]; Preemergence, 31 g ai/ha): 10
- Plant response rating, Russian Thistle [7, 17]: 95
- Plant response rating, Russian Thistle [7, 18]: 95
- Plant response rating, Russian Thistle [7, 19]: 100
- Plant response rating, Russian Thistle [7, 20]: 70
- Pigweed plant response rating [8, 14]: 100
- Plant response rating, Pigweed [8, 15]: 100
- Plant response rating, Pigweed [8, 16]: 100
- Plant response rating (scale of 0 to 100), Pigweed ([8]; Preemergence, 31 g ai/ha): 100
- Plant response rating, Pigweed [8, 17]: 100
- Plant response rating, Pigweed [8, 18]: 100
- Plant response rating, Pigweed [8, 19]: 100
- Plant response rating, Pigweed [8, 20]: 100
- Wheat, Spring plant response rating [9, 14]: 0
- Plant response rating, Wheat, Spring [9, 15]: 15
- Plant response rating, Wheat, Spring [9, 16]: 30
- Plant response rating (scale of 0 to 100), Wheat, Spring ([9]; Preemergence, 31 g ai/ha): 0
- Plant response rating, Wheat, Spring [9, 17]: 0
- Plant response rating, Wheat, Spring [9, 18]: 25
- Plant response rating, Wheat, Spring [9, 19]: 35
- Plant response rating, Wheat, Spring [9, 20]: 10
- Barley, Winter plant response rating [10, 14]: 0
- Plant response rating, Barley, Winter [10, 15]: 5
- Plant response rating, Barley, Winter [10, 16]: 15
- Plant response rating (scale of 0 to 100), Barley, Winter ([10]; Preemergence, 31 g ai/ha): 0
- Plant response rating, Barley, Winter [10, 17]: 0
- Plant response rating, Barley, Winter [10, 18]: 15
- Plant response rating, Barley, Winter [10, 19]: 45
- Plant response rating, Barley, Winter [10, 20]: 0
- Radish, Wild plant response rating [11, 14]: 10
- Plant response rating, Radish, Wild [11, 15]: 50
- Plant response rating, Radish, Wild [11, 16]: 65
- Plant response rating (scale of 0 to 100), Radish, Wild ([11]; Preemergence, 31 g ai/ha): 20
- Plant response rating, Radish, Wild [11, 17]: 75
- Plant response rating, Radish, Wild [11, 18]: 100
- Plant response rating, Radish, Wild [11, 19]: 100
- Plant response rating, Radish, Wild [11, 20]: 50
- Speedwell plant response rating [12, 14]: 65
- Plant response rating, Speedwell [12, 15]: 85
- Plant response rating, Speedwell [12, 16]: 80
- Plant response rating (scale of 0 to 100), Speedwell ([12]; Preemergence, 31 g ai/ha): 65
- Plant response rating, Speedwell [12, 17]: 95
- Plant response rating, Speedwell [12, 18]: 95
- Plant response rating, Speedwell [12, 19]: 100
- Plant response rating, Speedwell [12, 20]: 75
- Field Poppy plant response rating [13, 14]: 60
- Plant response rating, Field Poppy [13, 15]: 100
- Plant response rating, Field Poppy [13, 16]: 100
- Plant response rating (scale of 0 to 100), Field Poppy ([13]; Preemergence, 31 g ai/ha): 90
- Plant response rating, Field Poppy [13, 17]: 100
- Plant response rating, Field Poppy [13, 18]: 100
- Plant response rating, Field Poppy [13, 19]: 100
- Plant response rating, Field Poppy [13, 20]: 80
